The text below walks through data of ChEMBL document CHEMBL1201862, “PubChem BioAssay data set” (2004).

Common to all, as to experiment: inhibition of tumour cell growth, NCI panel, 48 h
In experiment [1] the test system is CCRF-CEM.
In experiment [2] the test system is HCT-116.
The subject of experiment [3] is HT-29.
The test system of experiment [4] is IGROV-1.
For experiment [5], the system named is KM12.
Experiment [6] relates to MCF7.
In experiment [7] the test system is Malme-3M.
For experiment [8], the system named is OVCAR-3.
The test system of experiment [9] is SF-268.
The subject of experiment [10] is SF-295.
In experiment [11] the test system is SF-539.
Experiment [12] deals with SK-MEL-28.
In experiment [13] the test system is SK-MEL-2.
For experiment [14], the system named is SNB-19.
Experiment [15] relates to UACC-62.
In experiment [16] the test system is DU-145.
Experiment [17] has as its system M14.
Experiment [18] has as its system MDA-MB-231.
Experiment [19] concerns 786-0.

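Values below derive from 48-hour exposures of cells grown in 96-well plates, with endpoints linearly interpolated between the two concentrations bracketing the appropriate inhibition level. At the GI50, growth is halved.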 The source made the active and inactive calls. Cut-off read from the data, not from the text of the source: active = GI50 up to about 1.1 µM and inactive = higher.

Turning to `CC12CCC(C(=O)N3CC=CCC3)(OC1=O)C2(C)C` (stereo not drawn), the GI50 in experiment [1] is > 82.8 µM (inactive); in [2] it was > 100 µM (inactive); in [3], > 100 µM (inactive); in experiment [4], > 100 µM (inactive); in experiment [5] it was > 100 µM (inactive); in experiment [6] it was > 100 µM (inactive). Besides, the GI50 in experiment [7], in experiment [8], in experiment [9], in experiment [10], in experiment [11] and in [12] was > 100 µM (inactive) each time. Moreover, the GI50 in experiment [13], in [14] and in experiment [15] was > 100 µM (inactive) throughout.

`CCCC(=O)OCC1OC(n2ccc(N)nc2=O)C(OC(=O)CCC)C1OC(=O)CCC` (stereo not drawn): the GI50 in experiment [1] is 0.203 µM (active); in [2], 33.3 µM (inactive); in [3], 99.3 µM (inactive); in experiment [4], > 63 µM (inactive); in experiment [5] it was > 100 µM (inactive); in [6], 8.09 µM (inactive). The GI50 is > 21.2 µM (inactive) in experiment [7]; > 100 µM (inactive) in experiment [8]; > 42.4 µM (inactive) in experiment [9]; > 73.5 µM (inactive) in experiment [10]; 77.3 µM (inactive) in [11]; 15.1 µM (inactive) in experiment [12]. Further, the GI50 was > 85.9 µM (inactive) in [13], 24.8 µM (inactive) in experiment [14] and 26.4 µM (inactive) in [15].

Turning to `COC(=O)c1ccc(/N=N/N(C)COc2ccc(Br)cc2)cc1`, the GI50 in [1] was 34 µM (inactive); in experiment [2], > 100 µM (inactive); in [3], 49.3 µM (inactive); in [4], > 100 µM (inactive); in [5], 75.5 µM (inactive); in experiment [6], > 58.3 µM (inactive). Also, the GI50 is > 100 µM (inactive) in experiment [7]; > 100 µM (inactive) in experiment [8]; > 75.5 µM (inactive) in [9]; > 60.8 µM (inactive) in [10]; > 100 µM (inactive) in experiment [11]; > 100 µM (inactive) in experiment [12]. For the same compound, the GI50 in experiment [13] is > 100 µM (inactive); in experiment [14], > 100 µM (inactive); in experiment [15] it was 60 µM (inactive).

Turning to `CC(C)(C)OC(=O)NCCc1ccc(N)cc1`, the GI50 in [1], in [16], in experiment [2], in experiment [3], in [4] and in experiment [17] was > 100 µM (inactive) each time. The GI50 was > 100 µM (inactive) in experiment [6]; > 100 µM (inactive) in [18]; > 100 µM (inactive) in experiment [7]; 19.9 µM (inactive) in experiment [8]; > 100 µM (inactive) in experiment [9]; 49.2 µM (inactive) in experiment [10]. For the same compound, the GI50 in [12], in experiment [14] and in experiment [15] was > 100 µM (inactive) throughout.

As to `O=C1c2ccccc2CCCCCCCCCCC12OCCCO2`, the GI50 in experiment [19] was 67.1 µM (inactive); in [1] it was 25.3 µM (inactive); in experiment [2] it was 16 µM (inactive); in experiment [3] it was 15.1 µM (inactive); in experiment [4], 41.4 µM (inactive); in [5] it was 27.6 µM (inactive). Further, the GI50 in experiment [17] is 51.3 µM (inactive); in experiment [7] it was 30.9 µM (inactive); in [8], 32.5 µM (inactive); in experiment [9], 11.8 µM (inactive); in experiment [10] it was 34.7 µM (inactive); in [11], 58.1 µM (inactive). Further, the GI50 in experiment [12] was 55.8 µM (inactive); in experiment [13] it was 24.3 µM (inactive); in experiment [14], 29.5 µM (inactive); in experiment [15], 82.2 µM (inactive).

Turning to `Cc1cc(S(=O)(=O)Nc2nc(N)nc(N(C)C)n2)c(SCC(=O)O)cc1Cl`, the GI50 in [19], in experiment [1], in experiment [16], in experiment [2], in experiment [3] and in experiment [4] was > 10 µM (inactive) throughout. Further, the GI50 in [5], in experiment [17], in experiment [6], in experiment [7], in experiment [8] and in experiment [9] was > 10 µM (inactive) throughout. Further, the GI50 in experiment [10], in experiment [11], in [12], in experiment [13] and in [14] was > 10 µM (inactive) throughout.

Turning to `CC(=O)C(CN(C)C)C(c1ccccc1)c1c(O)c2ccccc2oc1=O` (stereo not drawn), the GI50 in experiment [19], in experiment [1], in experiment [2], in experiment [3], in experiment [4] and in [5] was > 100 µM (inactive) each time. The GI50 in experiment [17], in experiment [7], in [8], in experiment [9], in experiment [10] and in experiment [11] was > 100 µM (inactive) in each case. Besides, the GI50 in experiment [12], in [13], in experiment [14] and in experiment [15] was > 100 µM (inactive) each time.

On to `O=c1cc2ccccc2nn1Cc1ccccc1Cl`, for which the GI50 in experiment [19], in [1], in experiment [2], in experiment [3], in experiment [4] and in [5] was > 100 µM (inactive) in each case. The GI50 is > 100 µM (inactive) in experiment [17]; > 100 µM (inactive) in experiment [7]; 94.6 µM (inactive) in experiment [8]; > 100 µM (inactive) in experiment [9]; > 100 µM (inactive) in experiment [10]; > 100 µM (inactive) in [11]. The GI50 in experiment [12] was > 100 µM (inactive); in [13], > 100 µM (inactive); in experiment [14], > 100 µM (inactive); in experiment [15], 89.7 µM (inactive).

For the compound `CC(C)OC(=O)c1cc(NC(=O)C(C)(C)C)c(F)cc1Cl`, the GI50 in experiment [19], in experiment [1], in experiment [2], in [3], in [4] and in experiment [5] was > 100 µM (inactive) in each case. Moreover, the GI50 in experiment [17], in experiment [7], in experiment [8], in experiment [9], in [10] and in [11] was > 100 µM (inactive) each time. The GI50 in experiment [12], in experiment [13], in [14] and in experiment [15] was > 100 µM (inactive) each time.

In the case of `CCOC(=O)/C=C/n1c2ccccc2c(=O)c2cc(OC)ccc21`, the GI50 in experiment [19] was > 100 µM (inactive); in [1], 50.8 µM (inactive); in experiment [2], 90.6 µM (inactive); in experiment [3] it was 38.5 µM (inactive); in experiment [4], > 100 µM (inactive); in experiment [5], > 100 µM (inactive). For the same compound, the GI50 in [17], in experiment [7], in experiment [8], in experiment [9], in experiment [10] and in [11] was > 100 µM (inactive) each time. Also, the GI50 was > 100 µM (inactive) in experiment [12], > 100 µM (inactive) in experiment [13], 61.2 µM (inactive) in experiment [14] and > 100 µM (inactive) in experiment [15].

`CN(C)CC1(Cc2ccccc2)CC/C(=C\c2ccccc2)C1=O` (stereo not drawn): the GI50 in [19] was 35.1 µM (inactive); in experiment [1] it was 27 µM (inactive); in experiment [2], 29.1 µM (inactive); in experiment [3], 20.7 µM (inactive); in experiment [4], 47.8 µM (inactive); in experiment [5], 40.3 µM (inactive). Besides, the GI50 is 49.3 µM (inactive) in [17]; 44 µM (inactive) in experiment [7]; 31.4 µM (inactive) in [8]; 61 µM (inactive) in experiment [9]; 62.2 µM (inactive) in experiment [10]; 24.9 µM (inactive) in experiment [11]. Further, the GI50 in experiment [12] is > 100 µM (inactive); in experiment [13] it was 50.9 µM (inactive); in experiment [14], 22.2 µM (inactive); in experiment [15] it was 15.1 µM (inactive).

In the case of `CC(C)Cc1ccc(C(C)C(=O)N2CCN(/C=C/c3ccccc3)CC2)cc1` (stereo not drawn), the GI50 in experiment [1] is 13 µM (inactive); in experiment [2], 13.4 µM (inactive); in experiment [3], 14.7 µM (inactive); in experiment [4], 15.1 µM (inactive); in experiment [5], 15.5 µM (inactive); in [6], 16 µM (inactive). Also, the GI50 in [7] was 16.3 µM (inactive); in experiment [8], 12.9 µM (inactive); in experiment [9] it was 16.3 µM (inactive); in [10] it was 15.9 µM (inactive); in [11], 15.2 µM (inactive); in [12], 17.7 µM (inactive). The GI50 in experiment [13] was 13.6 µM (inactive); in experiment [14], 2.79 µM (inactive); in experiment [15], 13.4 µM (inactive).
